This is an account of results in publication PMC9024521, “4-Heteroaryl Substituted Amino-3,5-Dicyanopyridines as New Adenosine Receptor Ligands: Novel Insights on Structure-Activity Relationships and Perspectives” (Pharmaceuticals, 2022).

In data set [1] the target is T1, hA1AR (Homo sapiens, UniProt P30542).
T1 construct: host or cells: CHO cells
T1 sequence (P30542 1-326): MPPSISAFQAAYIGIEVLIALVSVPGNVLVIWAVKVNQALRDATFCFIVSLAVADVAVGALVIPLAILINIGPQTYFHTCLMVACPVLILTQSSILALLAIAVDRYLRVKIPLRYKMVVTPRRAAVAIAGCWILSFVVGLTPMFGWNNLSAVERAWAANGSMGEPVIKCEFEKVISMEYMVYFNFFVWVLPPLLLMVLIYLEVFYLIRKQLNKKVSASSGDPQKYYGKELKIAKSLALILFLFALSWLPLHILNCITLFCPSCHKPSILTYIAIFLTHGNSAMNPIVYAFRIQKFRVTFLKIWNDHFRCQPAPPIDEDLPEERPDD
Description: Competition binding, [3H]DPCPX, hA1 CHO cell membranes. Particulars: displacement of [3H]DPCPX, hA1 CHO cells; mean ± SEM of four assays. The protocol:
(§1) CHO cells transfected with hA1, hA2A, hA2B and hA3 ARs (Perkin Elmer, Boston, MA, USA) were grown adherently and maintained in Dulbecco’s modified Eagle’s medium with nutrient mixture F12, containing 10% fetal calf serum, penicillin (100 U/mL), streptomycin (100 μg/mL), L-glutamine (2 mM) and geneticine (G418; 0.2 mg/mL), at 37 °C, in 5% CO2/95% air, until their use in cAMP assays. For membrane preparation, the culture medium was removed, and the cells were washed with phosphate-buffered saline and scraped off T75 flasks in ice-cold hypotonic buffer (5 mM Tris HCl, 1 mM EDTA, pH 7.4). The cell suspension was homogenized with a Polytron, centrifuged for 30 min at 40,000× g, at 4 °C, and the resulting membrane pellet was used for competition binding experiments.
(§2) All synthesized compounds were tested for their affinity to hA1, hA2A and hA3 ARs. Competition experiments to hA1AR were carried out by incubating 1 nM [^3H]-8-cyclopentyl-1,3-dipropylxanthine ([^3H]-DPCPX) with membrane suspension (50 μg of protein/100 μL) and different concentrations of the examined compounds at 25 °C for 90 min in 50 mM Tris HCl, pH 7.4. Non-specific binding was defined as binding in the presence of 1 μM DPCPX and was always <10% of the total binding. Inhibition experiments to hA2A ARs were performed by incubating the radioligand [^3H]-4-(-2-[7-amino-2-{2-furyl}{1,2,4}triazolo{2,3-a} {1,3,5}triazin-5-yl-amino]ethyl)phenol ([^3H]-ZM241385) (1 nM) with the membrane suspension (50 μg of protein/100 μL) and different concentrations of the examined compounds for 60 min, at 4 °C, in 50 mM Tris HCl (pH 7.4), 10 mM MgCl2. Non-specific binding was determined in the presence of ZM241385 (1 μM) and was about 20% of the total binding. Competition binding experiments to A3ARs were carried out by incubating the membrane suspension (50 μg of protein/100 μL) with 0.5 nM [^125I]-N6-(4-aminobenzyl)-N-methylcarboxamidoadenosine ([^125I]-ABMECA) in the presence of different concentrations of the examined compounds for an incubation time of 120 min, at 4 °C, in 50 mM Tris HCl (pH 7.4), 10 mM MgCl2, 1 mM EDTA. Non-specific binding was defined as binding in the presence of 1 μM ABMECA and was always <10% of the total binding. Bound and free radioactivity were separated by filtering the assay mixture through Whatman GF/B glass-fiber filters, using a Brandel cell harvester (Brandel Instruments, Unterföhring, Germany). The filter bound radioactivity was counted by Packard Tri Carb 2810 TR scintillation counter (Perkin Elmer).
(§3) The protein concentration was determined according to a Bio-Rad method, with bovine albumin as a standard reference. Inhibitory binding constant (Ki) values were calculated from those of IC50 according to the Cheng–Prusoff equation, Ki = IC50/(1 + [C*]/KD*), where [C*] is the concentration of the radioligand, and KD* its dissociation constant. Ki and IC50 values were calculated by non-linear regression analysis, using the equation for a sigmoid concentration-response curve (Graph-PAD Prism, San Diego, CA, USA).

Another data set concerns the target T2, hA2AAR (Homo sapiens, UniProt P29274).
T2 construct: host or cells: CHO cells
Put plainly: Competition binding, [3H]ZM241385, hA2A CHO cell membranes. Particulars: displacement of [3H]ZM241385, hA2A CHO cells; mean ± SEM of four assays. Here is the method:
as §1, §2, §3
On the technique in general: Displacement assays read how much labelled ligand stays bound in the presence of the test substance.

In a further data set the target is T3, hA3AR (Homo sapiens, UniProt P0DMS8).
T3 construct: host or cells: CHO cells
T3 sequence (P0DMS8 1-318): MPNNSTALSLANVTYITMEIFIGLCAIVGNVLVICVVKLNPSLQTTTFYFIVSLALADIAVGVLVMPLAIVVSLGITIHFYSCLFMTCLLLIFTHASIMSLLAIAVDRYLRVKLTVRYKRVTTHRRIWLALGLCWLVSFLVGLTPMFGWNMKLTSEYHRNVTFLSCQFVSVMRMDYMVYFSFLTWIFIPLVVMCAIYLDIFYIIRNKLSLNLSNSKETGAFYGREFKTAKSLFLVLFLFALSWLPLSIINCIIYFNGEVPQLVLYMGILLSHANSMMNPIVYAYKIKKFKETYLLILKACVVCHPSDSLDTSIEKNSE
Description: Competition binding, [125I]AB-MECA, hA3 CHO cell membranes. Particulars: for inhibition at 1 µM: 1 µM compound, [125I]AB-MECA binding, read-out: I% hA3 (percentage of inhibition); for Ki: displacement of [125I]AB-MECA, hA3 CHO cells, mean ± SEM of four assays. The protocol: as §1, §2, §3

The next data set has as its target T4, hA2B AR (Homo sapiens, UniProt P29275).
T4 construct: host or cells: CHO cells
T4 sequence (P29275 1-332): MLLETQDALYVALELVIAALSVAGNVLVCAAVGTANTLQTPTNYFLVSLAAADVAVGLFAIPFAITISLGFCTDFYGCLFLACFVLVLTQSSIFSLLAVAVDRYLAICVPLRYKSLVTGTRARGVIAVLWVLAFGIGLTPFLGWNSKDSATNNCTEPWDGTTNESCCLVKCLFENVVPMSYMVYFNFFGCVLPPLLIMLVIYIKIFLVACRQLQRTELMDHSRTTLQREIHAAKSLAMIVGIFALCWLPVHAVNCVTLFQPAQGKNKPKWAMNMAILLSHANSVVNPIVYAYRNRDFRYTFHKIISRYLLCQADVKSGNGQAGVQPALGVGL
Description: cAMP assay in CHO cells expressing hA2B AR (stimulation of cAMP production). Particulars: for Emax at 1 µM: CHO, 1 µM compound, in comparison with NECA (1 µM = 100%), read-out: Efficacy hA2B (cAMP assay) (converted); for EC50: hA2B CHO cells, mean ± SEM of four assays. The class given is cell-based. Here is the method: (§4) The amino-3,5-dicyanopyridines 1–21 were tested for their affinity at hA1, hA2A and hA3 ARs, stably transfected in Chinese Hamster Ovary (CHO) cells. Moreover, they were also studied as hA2B agonists by evaluating their stimulatory effect on cAMP production in CHO cells, stably expressing the hA2B AR. […] Due to their interesting pan profile, both compounds 1 and 5 were evaluated as AR agonists also at the hA2A and hA3 subtypes.
as §1
(§5) CHO cells transfected with hAR subtypes were washed with phosphate-buffered saline, detached with tripsine and centrifuged for 10 min at 200× g. Cells were seeded in a 96-well white half-area microplate (Perkin Elmer, Boston, USA) in a stimulation buffer composed of Hank Balanced Salt Solution, 5 mM HEPES, 0.5 mM Ro 20–1724, 0.1% BSA. The cAMP levels were then quantified by using the AlphaScreen cAMP Detection Kit (Perkin Elmer, Boston, MA, USA), following the manufacturer’s instructions. At the end of the experiments, the plates were read with a Perkin Elmer EnSight Multimode Plate Reader.
A general note: cAMP levels reflect the balance of adenylyl cyclase and phosphodiesterase activity.

The target of data set [2] is T1, hA1AR. Put plainly: Modulation of Forskolin-stimulated cAMP levels in hA1 CHO cells. Format: cell-based. Here is the method:
as §4, §1, §5

T2 sequence (P29274 whole entry): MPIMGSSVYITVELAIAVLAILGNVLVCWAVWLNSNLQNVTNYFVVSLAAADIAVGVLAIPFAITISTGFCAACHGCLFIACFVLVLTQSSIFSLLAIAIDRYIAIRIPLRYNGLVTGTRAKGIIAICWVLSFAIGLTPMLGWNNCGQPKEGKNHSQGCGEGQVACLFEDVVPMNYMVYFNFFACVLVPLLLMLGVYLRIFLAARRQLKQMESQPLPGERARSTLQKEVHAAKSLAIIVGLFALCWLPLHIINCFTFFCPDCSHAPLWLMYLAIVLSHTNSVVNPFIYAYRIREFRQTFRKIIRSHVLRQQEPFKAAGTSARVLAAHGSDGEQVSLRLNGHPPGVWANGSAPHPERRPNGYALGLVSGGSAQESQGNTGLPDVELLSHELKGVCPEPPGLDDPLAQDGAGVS

On to `N#Cc1c(N)nc(SCc2ncc[nH]2)c(C#N)c1-c1cccnc1` [Compound 8, 2′-Amino-6′-[(1H-imidazol-2-ylmethyl)sulfanyl]-3,4′-bipyridine-3′,5′-dicarbonitrile], for which the melting point is 244 to 245 °C (dec.). At hA1AR [1], the Ki is 5.26 ± 0.48 nM. Moreover, affinity on hA2AAR was put at a Ki of 463 ± 38 nM. In addition, the inhibition at 1 µM on hA3AR was 19%. At hA2B AR, the Emax at 1 µM is 58% and it took 63 ± 5 nM to reach a half-maximal effect (EC50).

On to `Br.N#Cc1c(N)nc(SCc2ncc[nH]2)c(C#N)c1-c1ccc(CO)o1` [Compound 2, 2-Amino-4-[5-(hydroxymethyl)furan-2-yl]-6-[(1H-imidazol-2-ylmethyl)sulfanyl]pyridine-3,5-dicarbonitrile hydrobromide], for which the melting point was in the range of 293 to 294 °C. Moreover, at hA1AR [1], the Ki was 190 ± 16 nM. Moreover, at hA2AAR, the Ki was found to be 233 ± 19 nM. The compound also registered a Ki at hA3AR of 290 ± 23 nM. In addition, on hA2B AR, the Emax at 1 µM was 8% and the EC50 is greater than 1000 nM.

In turn, `N#Cc1c(N)nc(SCc2ncc[nH]2)c(C#N)c1-c1ccc(O)nc1` [Compound 10, 2′-Amino-6-hydroxy-6′-[(1H-imidazol-2-ylmethyl)sulfanyl]-3,4′-bipyridine-3′,5′-dicarbonitrile] displayed a Ki at hA1AR [1] of 149 ± 11 nM. The compound also registered a Ki on hA2AAR of 613 ± 53 nM. In addition, the inhibition at 1 µM at hA3AR came out at 23%. Moreover, on hA2B AR, the Emax at 1 µM is 1% and the EC50 was greater than 1000 nM.

Consider `N#Cc1c(SCc2ncc[nH]2)nc(N2CCCC2)c(C#N)c1-c1ccco1` [Compound 20], for which the melting point was 232 to 234 °C. This compound also came in with a Ki at hA1AR [1] of 41 ± 3 nM. The inhibitory constant (Ki) on hA2AAR stood at 89 ± 7 nM. Also, the inhibition constant (Ki) on hA3AR is 118 ± 11 nM. At hA2B AR, the Emax at 1 µM is 8% and the EC50 was greater than 1000 nM.

The compound `N#Cc1c(N)nc(SCC(=O)NCc2cnc[nH]2)c(C#N)c1-c1ccco1` [Compound 15, 2-{[6-Amino-3,5-dicyano-4-(furan-2-yl)pyridin-2-yl]sulfanyl}-N-(1H-imidazol-5-ylmethyl)acetamide] registered a melting point of 269 to 270 °C. Affinity at hA1AR [1] was put at a Ki of 378 ± 26 nM. This compound also registered a Ki on hA2AAR of 225 ± 18 nM. At hA3AR, this compound had a Ki of 758 ± 66 nM. For the same compound, on hA2B AR, the Emax at 1 µM was 1% and the EC50 was greater than 1000 nM.

Consider `N#Cc1c(N)nc(SCc2ncc[nH]2)c(C#N)c1-c1ccoc1` [Compound 4, 2-Amino-4-(furan-3-yl)-6-[(1H-imidazol-2-ylmethyl)sulfanyl]pyridine-3,5-dicarbonitrile], for which the figures for the Ki at hA1AR [1], at hA2AAR and at hA3AR were 0.77 ± 0.09 nM, 37 ± 3 nM and 274 ± 23 nM, respectively. Also, the Emax at 1 µM on hA2B AR was 42%. This compound also returned an EC50 on hA2B AR of 2.32 ± 0.21 nM.

For the compound `N#Cc1c(N)nc(SCc2csc(C(=O)NCCc3cnc[nH]3)n2)c(C#N)c1-c1ccco1` [Compound 17, 4-({[6-Amino-3,5-dicyano-4-(furan-2-yl)pyridin-2-yl]sulfanyl}methyl)-N-[2-(1H-imidazol-5-yl)ethyl]-1,3-thiazole-2-carboxamide], the Ki was determined as 33 ± 3 nM at hA1AR [1], 279 ± 22 nM on hA2AAR and 542 ± 48 nM on hA3AR. In addition, on hA2B AR, the Emax at 1 µM was 6%. Moreover, the EC50 is greater than 1000 nM at hA2B AR and 38 ± 3 nM at hA1AR [2] (footnote c, mean ± SEM of four experiments, read-out: hA1AR EC50 or IC50, potency to modulate Forskolin-stimulated cAMP levels). At hA1AR [2] (normalized: CCPA full agonist = 100%, DPCPX inverse agonist = −100%), the “hA1AR Efficacy” value amounted to 54 ± 4%. For the same compound, the “hA1AR Profile” value on hA1AR [2] (pharmacological profile in cAMP assay) is on record as “Partial Agonist”.

`CC(=O)Nc1nc(SCc2ncc[nH]2)c(C#N)c(-c2ccco2)c1C#N` [Compound 21, N-{3,5-dicyano-4-(furan-2-yl)-6-[(1H-imidazol-2-ylmethyl)sulfanyl]pyridin-2-yl}acetamide]: the Ki at hA1AR [1] came to 34 ± 3 nM; at hA2AAR it was 394 ± 27 nM; at hA3AR it was 768 ± 63 nM. Besides, the Emax at 1 µM on hA2B AR was 1%. At hA2B AR, this compound yielded an EC50 greater than 1000 nM.

For `N#Cc1c(N)nc(SCC(=O)NCc2ncc[nH]2)c(C#N)c1-c1ccco1` [Compound 14, 2-{[6-Amino-3,5-dicyano-4-(furan-2-yl)pyridin-2-yl]sulfanyl}-N-(1H-imidazol-2-ylmethyl)acetamide], the Ki on hA1AR [1] turned out to be 87 ± 7 nM. The same compound came in with a Ki at hA2AAR of 817 ± 71 nM. For the same compound, the inhibition at 1 µM at hA3AR turned out to be 33%. In addition, on hA2B AR, the Emax at 1 µM is 6% and the EC50 was greater than 1000 nM.

Consider `Cc1ccc(-c2c(C#N)c(N)nc(SCc3ncc[nH]3)c2C#N)o1` [Compound 3, 2-Amino-6-[(1H-imidazol-2-ylmethyl)sulfanyl]-4-(5-methylfuran-2-yl)pyridine-3,5-dicarbonitrile], for which the inhibition constant (Ki) at hA1AR [1] was determined as 10.1 ± 0.8 nM; on hA2AAR, 10.5 ± 0.9 nM; at hA3AR, 279 ± 21 nM. Moreover, the Emax at 1 µM on hA2B AR is 1%. Besides, the EC50 on hA2B AR was greater than 1000 nM.

In general, Ki refers to the equilibrium dissociation constant of an inhibitor or competing ligand from its target. The low end stands for higher affinity, the high end for lower affinity. As usually defined, the inhibition is how much of the control response was suppressed. By EC50 is commonly meant the concentration giving half of the maximal effect. As a reminder, the melting point is the temperature of the solid-liquid transition.
